Experimental data published in ChEMBL document CHEMBL4622872, “Discovery of DS-1971a, a Potent, Selective NaV1.7 Inhibitor” (J Med Chem, 2020).
Converted amounts (≈) assume the structure as drawn.

How the values were obtained:
[1] = Distribution coefficient, log D of the compound in 1-octanol and PBS buffer at pH 7.4 measured after 30 mins by LC-MS analysis; format: physicochemical; conditions: 1-octanol/PBS buffer
[2] = Aqueous thermodynamic solubility of the compound at pH 6.8 measured after 4 hrs by UV-HPLC analysis; format: physicochemical; conditions: buffer, pH 6.8; read-out: Therm_solubility
[3] = Stability of the compound in mouse liver microsomes assessed as parent compound remaining measured after 0.5 hrs; format: ADME, Microsome; conditions: mouse liver microsomes, read-out: Stability

Structure (SMILES) | logD at 0.5 h [1] | solubility thermodynamic at 4 h [2] [µM] | remaining at 0.5 h [3] [%]
Cn1nccc1[C@H]1CCCC[C@@H]1Oc1cc(F)c(S(=O)(=O)Nc2ccncn2)c(F)c1 (racemic) | 0.1 | 1800 (≈ 809 µg/mL) | 77
Cn1nccc1[C@H]1CCC[C@@H]1Oc1ccc(S(=O)(=O)Nc2ccncn2)c(F)c1F (racemic) | 0.4 | 550 (≈ 240 µg/mL) | 82
